# Data taken from patent US7786152B2, “Compound” (priority 2002, dated 2010).
# Target: T1, Human 11βHSD1 (Homo sapiens, UniProt P28845)
# T1 construct: the enzyme source, native hepatic enzyme compared to recombinant enzyme; tissue XenoTech H0610/Lot 0210078; host or cells: human hepatic microsomes
# Experiment: 11β HSD1 cortisol radioimmunoassay (RIA) with human hepatic microsomes
# Format: biochemical
# Details: read-out: % inhibition of Human 11βHSD1 @ 10 μM
# Procedure: Biological Assay Development Using Human 11β-Hydroxysteroid Dehydrogenase Type 1. Standard Operating Procedure for the 11β-Hydroxysteroid Dehydrogenase Type 1 Cortisol Radioimmunoassay. 11β HSD1 Cortisol RIA
# Enzyme assay buffer: 30 mM Tris-HCL, pH 7.2 containing 1 mM EDTA
# Antibody binding buffer: 50 mM Tris-HCL, pH 8, containing 0.1 M NaCl and 0.1% gelatin
# Dilute into assay buffer 1 in 25. Also dilute neat DMSO 1 in 25 into assay buffer for controls.
# Dilute this 1 in 50 into assay buffer.
# Prepare NADPH as a 1.8 mg/ml solution in assay buffer.
# Mix these 3 solutions 1:1:1 to make a solution of sufficient volume for 25 μl additions to each sample. Add 0.5 μCi tritiated cortisone per 25 μl and mix the solution well.
# Microsome preparation: Dilute stock 20 mg/ml solution 1 in 100 with assay buffer.
# Dextran coated charcoal preparation: Make a 20 mg/ml solution in antibody binding buffer and chill on ice.
# Enzyme assay: To a u-bottom polypropylene 96 well plate add:
# 25 μl compound dilution or diluted DMSO to controls, NSB's and blanks
# 10 μl 1 mM GA in DMSO (enzyme stop solution) to blanks
# 25 μl substrate mixture to all samples
# 50 μl diluted microsomes to all samples
# Incubate plate for 30 min at 37° C. shaking
# Add 10 μl enzyme stop solution to all wells except the blanks
# Add 100 μl antibody solution to all wells except the NSB's, add antibody binding buffer to these wells
# Incubate at 37° C. for 1 h
# Chill plate on ice for 15 min
# Add 50 μl/well charcoal solution and mix with an 8-channel pipette (4-5 aspirations)
# Centrifuge at 4° C., 2000×g for 15 min
# Transfer 100 μl supernatant into an Optiplate, also add 25 μl substrate mixture to 2 empty wells to indicate counting efficiency
# Add 200 μl Microscint-40 to all wells and count on a Topcount
# The 11β HSD1 enzyme assay was carried out following the standard operating procedure described above in u-bottom polypropylene 96 well plates or 1.5 ml Eppendorf tubes as indicated for each experiment. Subsequent to stopping the enzyme reaction, 100 μl antibody prepared in buffer 3 unless otherwise indicated was added to test samples and 100 μl buffer 3 was added to the NSB samples. The samples were incubated for 1 hour at 37° C. and the chilled on ice for 15 mins. Dextran coated charcoal (50 μl/sample) prepared to the indicated concentration in buffer 3 was added and the samples were mixed (vortex for tubes and aspiration 5 times with an 8-channel pipette for 96 well plates) and chilled for a further 10 min. The samples were centrifuged at 2000×g for 15 min at 4° C. to pellet the charcoal. Aliquots of the supernatant (100 μl) were transferred to an Optiplate and counted on the Topcount in 150-200 μl Microscint 40. In some experiments, aliquots of supernatant were transferred to scintillation vials and counted on the Tricarb LSC in 5 ml Ultima Gold scintillant.
# Substrate saturation was examined. The enzyme assay was carried out exactly described in the methods section, in Buffer 3 with 10 μg/well microsomal protein and with [cold cortisone] as indicated. [3H]-cortisone was 0.5 μCi/sample throughout. The reaction was stopped after 30 min by the addition of 10 μl stop solution. The RIA was carried out exactly as indicated in the methods section.
# It is reported that DMSO can both increase and reduce microsomal enzyme activity, depending on the concentration, presumably due to effects on the microsomal membranes.
# T1 sequence (P28845 whole entry): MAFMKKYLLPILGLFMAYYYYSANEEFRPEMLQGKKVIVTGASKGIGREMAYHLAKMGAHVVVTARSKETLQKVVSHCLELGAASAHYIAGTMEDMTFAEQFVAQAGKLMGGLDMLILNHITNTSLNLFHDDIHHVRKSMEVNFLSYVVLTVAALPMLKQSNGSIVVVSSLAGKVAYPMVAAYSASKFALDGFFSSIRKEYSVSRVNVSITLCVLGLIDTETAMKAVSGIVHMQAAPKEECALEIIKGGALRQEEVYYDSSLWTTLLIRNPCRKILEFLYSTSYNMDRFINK
row,Compound,inhibition at 10 µM
1,Cc1c(Cl)cccc1S(=O)(=O)Nc1ccc2nc(C)n(C)c2c1 [compound 975],45%
2,Cc1c(Cl)cccc1S(=O)(=O)Nc1ccc2cc[nH]c2c1 [compound 982],53%
3,Cc1nc2cc(C)c(NS(=O)(=O)c3cccc(Cl)c3C)cc2s1 [compound 998],58%
4,CCOC(=O)Cn1c(C)nc2ccc(NS(=O)(=O)c3cccc(Cl)c3C)cc21 [compound 977],61%
5,CCOC(=O)Cn1c(C)nc2cc(NS(=O)(=O)c3cccc(Cl)c3C)ccc21 [compound 978],60%
6,Cc1nc2c(Cl)c(NS(=O)(=O)c3cccc(Cl)c3C)ccc2s1 [compound 992],61%
7,Cc1nc2cc(CN(Cc3ccc4sc(C)nc4c3)S(=O)(=O)c3cccc(Cl)c3C)ccc2s1 [compound 1030],61%
8,Cc1nc2cc(NS(=O)(=O)c3cccc(Cl)c3C)ccc2[nH]1 [compound 985],61%
9,CCCc1ccc(S(=O)(=O)N(c2ccc3sc(C)nc3c2Cl)S(=O)(=O)c2ccc(CCC)cc2)cc1 [compound 995],68%
10,Cc1nc2c(Cl)c(N(S(=O)(=O)c3cccc(Cl)c3C)S(=O)(=O)c3cccc(C)c3Cl)ccc2s1 [compound 991],51%
11,CCCc1ccc(S(=O)(=O)Nc2ccc3[nH]c(C)c(C)c3c2)cc1 [compound 1020],64%
12,CCCc1ccc(S(=O)(=O)Nc2ccc3sc(C)nc3c2Cl)cc1 [compound 994],83%
13,Cc1nc2c(NS(=O)(=O)c3cccc(Cl)c3C)c(C)ccc2s1 [compound 996],63%
14,Cc1c(Cl)cccc1S(=O)(=O)Nc1ccc2[nH]ccc2c1 [compound 981],40%
15,CCOC(=O)c1cc2cc(NS(=O)(=O)c3cccc(Cl)c3C)ccc2[nH]1 [compound 986],65%
16,Cc1[nH]c2ccc(NS(=O)(=O)c3cccc(Cl)c3C)cc2c1C [compound 1018],66%
17,Cc1[nH]c2ccc(NS(=O)(=O)c3cc(Cl)ccc3Cl)cc2c1C [compound 1019],61%
18,Cc1nc2cc(C)c(N(S(=O)(=O)c3cccc(Cl)c3C)S(=O)(=O)c3cccc(Cl)c3C)cc2s1 [compound 997],51%
19,COc1ccc2nc(C)sc2c1NS(=O)(=O)c1cccc(Cl)c1C [compound 989],45%
20,Cc1nc2cc(C)c(NS(=O)(=O)c3cc(Cl)ccc3Cl)cc2s1 [compound 999],55%
21,CC(=O)N1CCc2cc(NS(=O)(=O)c3cccc(Cl)c3C)ccc21 [compound 984],73%
22,Cc1nc2c(Cl)c(NS(=O)(=O)c3cccc(Cl)c3C)c(Cl)cc2s1 [compound 1017],60%
23,CCN1CCc2cc(NS(=O)(=O)c3cccc(Cl)c3C)ccc21 [compound 987],62%
24,Cc1nc2ccc(C)c(NS(=O)(=O)c3cccc(Cl)c3C)c2s1 [compound 1021],54%
25,Cc1c(Cl)cccc1S(=O)(=O)Nc1ccc2c(c1)nc(C)n2C [compound 976],110%
26,Cc1c(Cl)cccc1S(=O)(=O)N(C)c1ccc2c(c1)sc(=O)n2C [compound 831],28%
27,Cc1nc2cc(CNS(=O)(=O)c3cccc(Cl)c3C)ccc2s1 [compound 1029],78%
